Reference: US8835644B2, “Broad spectrum benzothiophene-nitrothiazolide and other antimicrobials” (University of Virginia Patent Foundation, priority 2009, dated 2014)
Values after ≈ are worked out from the molar mass of the structure shown. Where two headings read alike, the source gives them in different places.

How the values were obtained:
H. pylori = assay: MIC testing by broth dilution, H. pylori; format: cell-based, Helicobacter pylori
How it was run: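 Broth dilution MIC determination against H. pylori: a standard inoculum in 100 microliters of Brain Heart Infusion medium was placed in 96 well microplates. Test compounds began at 32 μg/ml in 200 microliters in well one and were serially diluted over a 32 to 0.06 range. After 24 h, plates were scored by eye and the first well without growth was recorded as the MIC.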

S. epidermidis = assay: Aerobic growth of S. epidermidis in shaken TSB flasks; format: cell-based, Staphylococcus epidermidis
Description: Minimal inhibitory concentration testing of NTZ was done in sterile round bottom 96 well microtiter polystyrene plates (Corning Inc., Corning, N.Y.) by microdilution. Tizoxanide TIZ (deacetylated form of NTZ), denitro-NTZ (TIZ without 5-nitro group) and amoxanide AMIX (TIZ-ethylamine) were also tested. Bacteria were grown overnight and suspended in fresh TSB to an OD600 of 0.01 and 100 μl were dispensed into wells with the first well containing 200 μA NTZ and other antibiotics (DMSO control) were added to well one and serially diluted from 32 μg/ml. All compounds were tested in triplicate and plates were read visually or with a plate reader (Molecular Devices) at 8, 12 and at 24 h. MIC was determined as the first well in which no visible bacterial growth was noted relative to controls. Drug effects on aerobic growth were determined in 125 ml flasks containing 25 ml of TSB medium and following inoculation (detailed above), flasks were on a gyrorotary shaker (200 rpm) at 37° C. Final concentrations of NTZ were 0, 10 and 25 μg/ml and samples were removed at hourly intervals and absorbance determined at 600 nm.

S. epidermidis 9142 [1] = assay: Catheter adherence model; format: cell-based, Staphylococcus epidermidis; details: 24 h, dose dependent, within the IC50 range
Description: An overnight culture of S. epidermidis 9142 was used to inoculate fresh TSB medium to a final OD600 of 0.01 in a volume of 3 ml in 15 ml screw capped tubes. Sterile sheets of polyurethane were divided into 1 cm square pieces and placed into tubes containing different concentrations of NTZ or controls containing DMSO. The tubes were incubated for 24 h with shaking. Each catheter portion was washed 3 times with sterile PBS, suspended in 4 ml sterile PBS and sonicated for 10 min in a sonic water bath. 10 μl of the sonicated fluid was diluted in fresh PBS and plated onto TSA plates and incubated at 37° C. overnight. Bacteria were enumerated (triplicate plates) and the mean and standard deviation were determined and reported as CFU/ml. Viability effects were corrected for by plating the supernatants from the 3 ml experiment for total bacterial counts.

S. epidermidis 9142 [2] = assay: Biofilm dispersal assay; format: cell-based, Staphylococcus epidermidis; details: drug added to 4 h biofilm
[3] = Zn2+ chelation, spectrophotometric and 1H NMR; format: physicochemical; details: 1H NMR in DMSO-d6, ratios 1:1, 1:2, 2:1, up to 72 h
Description: To test direct binding of Zn^2+ by NTZ in solution, we tested a range of concentrations of both NTZ and TIZ and scanned the solutions spectrophotometrically using an OLIS Cary-14 (OLIS Instruments Co., Bogart Ga.). Absolute spectra were recorded over a UV/Vis range from 220 nm to 700 nm. Spectral shifts in the 418 nm range would be attributable to changes in resonance within the thiazole ring that would result if Zn^2+ were coordinated by NTZ (9).
Chelation experiments were also performed utilizing NTZ and TIZ in DMSO-d6 (0.5 mL) with ZnCl2 using a 300 MHz Varian MercuryPlus spectrometer. Specifically, three ratios of NTZ to Zn^2+ were investigated (1:1, 1:2, 2:1) where NTZ was held constant (4 mg, 13 μmoles) while varying ZnCl2 (1.8 mg, 13 μmoles or 3.5 mg, 26 μmoles) or NTZ (8 mg, 26 μmoles) with ZnCl2 (1.8 mg, 13 μmoles). Three ratios of TIZ to Zn^2+ were also investigated (1:1, 1:2, 2:1) where TIZ was held constant (4 mg, 15 μmoles) while varying ZnCl2 (2.1 mg, 15 μmoles or 4.1 mg, 30 μmoles) or TIZ (8 mg, 30 μmoles) with ZnCl2 (2.1 mg, 15 μmoles). ^1H NMR spectra were then obtained after mixing for 5 min, 24 h, 48 h, and 72 h at room temperature. Any chelation event would be evidenced by shifting or broadening of the thiazole and benzene protons as well as loss of the amide proton.

E. coli 042 aggR-lacZ = assay: Reporter gene fusions aggR-lacZ, aafA-phoA; format: cell-based, Escherichia coli; details: β-galactosidase, static growth, 12 μg/ml NTZ
Description: Reporter gene fusions were provided by James Nataro (University of Maryland) and included E. coli 042 aggR-lacZ and E. coli 042 aafA-phoA (3.4.14 and 2.94) (3) and an undefined promoterless lacZ control strain of E. coli 042. Strains were grown without shaking in MinA-G medium supplemented with 0, 12 or 25 μg/ml of NTZ for 16 h at 37° C. β-Galactosidase activity was determined spectrophotometrically and reported in Miller units (24). Alkaline phosphatase activity was also determined spectrophotometrically using p-nitrophenol as previously described (23). All assays were performed in triplicate in three independent experiments and the mean and standard deviation are reported.

EAEC = assay: Motility in soft agar; format: cell-based, Escherichia coli; details: concentrations that inhibited biofilm formation
Description: EAEC strains were grown overnight in MinA-G medium at 37° C. with shaking and used to inoculate fresh MinA-G medium containing a range of NTZ concentrations (0, 5, 10, 15, 20, and 25 μg/ml) to a starting OD600 of 0.1. Growth was recorded as the absorbance at 600 nm at 30-minute intervals over a period of eight hours. […] Motility was assessed in LB soft agar (0.3% agar) containing 0 to 25 μg/ml of NTZ. The diameter of outward spreading was measured daily and inhibition computed as percent of control.

**Q.** Which MIC (H. pylori; 2-amino-3,5-dinitrothiophene analogues table, read-out: MIC H. pylori) does the source give for CC(=O)Oc1ccccc1C(=O)Nc1ncc([N+](=O)[O-])s1 [Nitazoxanide, 2-(acetyloxy)-N-(5-nitro-2-thiazolyl)benzamide, reference compound] here?
**A.** The MIC was 13.0 µM (≈ 3.99 µg/mL).

**Q.** And the MIC (H. pylori; Helicobacter pylori, Furan analogues table, read-out: MIC H. pylori)?
**A.** The MIC was 13 µM (≈ 3.99 µg/mL).

**Q.** And the MIC (H. pylori; Helicobacter pylori, broth dilution, Brain Heart Infusion, 24 h, read-out: MIC (μM) H. pylori)?
**A.** Its MIC is 13 µM (≈ 3.99 µg/mL).

**Q.** And the MIC (H. pylori; Thiophene analogues table, read-out: MIC H. pylori)?
**A.** Its MIC is 13.0 µM (≈ 3.99 µg/mL).

**Q.** What about the “Effect on exponential growth rates” value (S. epidermidis; 10 μg/ml) of the same molecule?
**A.** Its value is “little effect on exponential growth rates”.

**Q.** What about the “Inhibition of growth in liquid culture under vigorous aeration” value (S. epidermidis; 25 μg/ml) of the same molecule?
**A.** The value was “significant inhibition”.

**Q.** And the “Attachment to catheter material” value (S. epidermidis 9142 [1])?
**A.** The value was “inhibited attachment”.

**Q.** What about the “Dispersal of preformed biofilm” value (S. epidermidis 9142 [2]) of the same molecule?
**A.** The value was “not dispersive”.

**Q.** And the “Chelation with ZnCl2” value [3]?
**A.** Its value is “No chelation”.

**Q.** What about the “Increase in aggR:lacZ expression over untreated controls” value (E. coli 042 aggR-lacZ) of the same molecule?
**A.** Its value is about 2.5 fold.

**Q.** And the “Effect on swarming motility in soft agar” value (EAEC)?
**A.** The value was “no effect”.
